Measured values as given in US20220142158A1, “ARTHROPOD CONTROL COMPOSITIONS” (FIRMENICH SA, priority 2019, published 2022).

Tested on: Aedes aegypti
Assay: Warm Body Assay, in-vitro repulsion of mosquitoes
Details: 100% at concentration 0
Procedure: The arthropod controlling effect according to the present invention is determined on mosquitoes using an adapted Warm Body assay as defined in Kröber T, Kessler S, Frei J, Bourquin M, Guerin P M. An in vitro assay for testing mosquito controlling compounds employing a warm body and carbon dioxide as a behavioral activator. J Am Mosq Control Assoc. 2010; 26:381-386.
The controlling effect according to the present invention is determined by testing the Warm Body assay against the yellow fever mosquito, Aedes aegypti Rockefeller strain. […] Observations of controlling efficacy were made on host-seeking females of uniform age, 5 to 10 days old selected as mentioned in the publication mentioned hereinabove. Tested hungry females had access to 10% sugar solution but were not blood-fed.
(§1) The published protocol has been adapted in not manually counting the landing mosquitoes but automatically using an automatic counting software, the switch from Anopheles gambiae to A. aegypti led to a decrease of mosquitoes' number placed in the tested cage due to the size difference (i.e. 30 mosquitoes instead of 50) and to an increase of lighting as A. aegypti is a diurnal mosquitoes (i.e. 150 lux instead of 4 lux).
The controlling efficacy in vitro was by an adapted Warm Body assay as defined in Kröber T, Kessler S, Frei J, Bourquin M, Guerin P M. An in vitro assay for testing mosquito controlling compounds employing a warm body and carbon dioxide as a behavioral activator. J Am Mosq Control Assoc. 2010; 26:381-386. The controlling effect according to the present invention is determined by testing the Warm Body assay against the yellow fever mosquito, A. aegypti Rockefeller strain.
as §1, with “Observations of controlling efficacy were made on host-seeking females of uniform age, 5 to 10 days old selected as mentioned in the publication mentioned hereinabove. Tested hungry females had access to 10% sugar solution but were not blood-fed. The” for “The”
In this in-vitro assay the number of A. aegypti landing on a warm body treated with the tested stimuli was measured in order to assess the repellency effect. […]

| Compound | Mean ± SD of normalized repulsion of mosquitoes Aedes aegypti (concentration 0.016 mg/mL) | Mean ± SD of normalized repulsion of mosquitoes Aedes aegypti (concentration 0.08 mg/mL) | Mean ± SD of normalized repulsion of mosquitoes Aedes aegypti (concentration 0.4 mg/mL) | Mean ± SD of normalized repulsion of mosquitoes Aedes aegypti (concentration 2 mg/mL) | Mean ± SD of normalized repulsion of mosquitoes Aedes aegypti (concentration 10 mg/mL) |
| --- | --- | --- | --- | --- | --- |
| CCN(CC)C(=O)c1cccc(C)c1 [DEET, N,N-diethyl-3-methylbenzamide] | 90% ± 9% | 42% ± 7% | 11% ± 5% | 2% ± 1% | 3% ± 3% |
| CCCCN(CCC(=O)OCC)C(C)=O [IR3535, ethyl butylacetylaminopropionate] | 103% ± 20% | 108% ± 14% | 31% ± 5% | 22% ± 9% | 11% ± 2% |
